Numbered stars: 1 amine (or outer) side, 2 acyl side, 3 side chain; on linkers, the order of the positions; unused ones are H or OH. Square brackets hold non-standard residues; d marks the D form. Peptide text beside a SMILES is read from it. * marks the point of attachment. ξ: configuration not given here. X1 = N=C1NCC(C(O)C(N[*:1])C(=O)[*:2])N1C1OC(CO)C(O)C(O)C1O; ξEnduracididine(βξ-OH,4'ξ) = N=C1NCC(C(O)C(N)C(=O)O)N1; X2 = OCC1OC(OC2C(CO)OC(*)C(O)C2O)C(O)C(O)C1O; ξPhe(βξ-Me) = CC(c1ccccc1)C(N)C(=O)O
Assays:
Assay in all cases: in vitro antibacterial activity, agar dilution method (MIC)
Assay type in all cases: cell-based
Parameters in all cases: unit not given here
Conditions in all cases: Mueller-Hinton agar containing 5% sheep blood, 18 hours incubation
[1] = test system: Staphylococcus aureus (ID-2371)
Procedure: (§1) The in vitro antibacterial activity of substantially pure glycopeptide antibiotics AC-98-1, AC-98-2, AC-98-3, AC-98-4, and AC-98-5 from Examples 2 and 3 is determined against a spectrum of bacteria by a standard agar dilution method. Mueller-Hinton agar containing 5% sheep blood and two-fold decreasing concentrations of substantially pure glycopeptide antibiotics AC-98-1, AC-98-2, AC-98-3, AC-98-4, and AC-98-5 from Examples 2 and 3 are poured into petri dishes. The agar surfaces are inoculated with 1 to 5 X 10^4 colony forming units of bacteria by means of a Steers replicating device. The lowest concentration of antibiotic that inhibited the growth of a bacterial strain after 18 hours incubation is recorded as the minimal inhibitory concentration for that strain. Table II. In vitro antibacterial activity of substantially pure antibiotics AC-98-1, AC-98-2, AC-98-3, AC-98-4, and AC-98-5 from Examples 2 and 3

[2] = test system: Enterococcus faecium (ID-3953)
Procedure: as §1

[3] = test system: Enterococcus faecalis (ATCC 29212)
Procedure: as §1

[4] = test system: Staph Coagulase Neg (4615)
Procedure: as §1

[5] = test system: Staphylococcus aureus (ID-4379)
Procedure: as §1

[6] = test system: Staphylococcus aureus (ATCC 29213)
Procedure: as §1

[7] = test system: Staphylococcus aureus (ID-2727)
Procedure: as §1

[8] = test system: Bacillus subtilis (Bacto)
Procedure: as §1

[9] = test system: Staphylococcus aureus (ID-3105)
Procedure: as §1

[10] = test system: Enterococcus faecium (12202)
Procedure: as §1

[11] = test system: Staphylococcus hemolyticus (ID-4061)
Procedure: as §1

[12] = test system: Staphylococcus aureus (NEMC-89-4)
Procedure: as §1

[13] = test system: Staphylococcus aureus (SMITH)
Procedure: as §1

[14] = test system: Morganella morganii (VGH 84-11)
Procedure: as §1

[15] = test system: Enterococcus faecalis (ID-2131)
Procedure: as §1

[16] = test system: Staph Coagulase Neg (ID-3276)
Procedure: as §1

[17] = test system: Enterococcus faecium (ID-4133)
Procedure: as §1

[18] = test system: Pseudomonas aeruginosa (ATCC 27853)
Procedure: as §1

[19] = test system: Enterococcus faecium (ID-3301)
Procedure: as §1

[20] = test system: Enterococcus faecalis (ID-1829)
Procedure: as §1

[21] = test system: Escherichia coli (J2175)
Procedure: as §1

CC(c1ccccc1)C1NC(=O)CNC(=O)C(CO)NC(=O)C(C(O)C2CNC(=N)N2C2OC(CO)C(O)C(O)C2O)NC(=O)C(C(O)C2CNC(=N)N2)NC(=O)C(Cc2ccc(OC3OC(CO)C(OC4OC(CO)C(O)C(O)C4O)C(O)C3O)cc2)NC1=O (stereo not drawn) [AC-98-1] (cyclo(G[ξPhe(βξ-Me)]Y(X2)[ξEnduracididine(βξ-OH,4'ξ)][X1]S); configuration not given here)
MIC [1]: >128
MIC [2]: >128
MIC [3]: >128
MIC [4]: >128
MIC [5]: 128
MIC [6]: 128
MIC [7]: >128
MIC [8]: >128
MIC [9]: 128
MIC [10]: >128
MIC [11]: 128
MIC [12]: >128
MIC [13]: 128
MIC [14]: >128
MIC [15]: >128
MIC [16]: 128
MIC [17]: 128
MIC [18]: >128
MIC [19]: >128
MIC [20]: >128

CC(c1ccccc1)C1NC(=O)CNC(=O)C(CO)NC(=O)C(C(O)C2CNC(=N)N2C2OC(CO)C(O)C(O)C2O)NC(=O)C(C(O)C2CNC(=N)N2)NC(=O)C(Cc2ccc(O)cc2)NC1=O (stereo not drawn) [AC-98-2] (cyclo(G[ξPhe(βξ-Me)]Y[ξEnduracididine(βξ-OH,4'ξ)][X1]S); configuration not given here)
MIC [1]: 128
MIC [2]: 128
MIC [3]: >128
MIC [4]: 128
MIC [8]: >128
MIC [10]: 128
MIC [14]: >128
MIC [15]: >128
MIC [18]: >128
MIC [19]: >128
MIC [20]: 128

CC(C)CC(=O)OC1C(OC2C(CO)OC(Oc3ccc(CC4NC(=O)C(C(C)c5ccccc5)NC(=O)CNC(=O)C(CO)NC(=O)C(C(O)C5CNC(=N)N5C5OC(CO)C(O)C(O)C5O)NC(=O)C(C(O)C5CNC(=N)N5)NC4=O)cc3)C(O)C2O)OC(CO)C(O)C1O (stereo not drawn) [AC-98-3]
MIC [14]: >128
MIC [15]: 128
MIC [18]: >128

CC(C)CC(=O)OC1C(O)C(CO)OC(OC2C(CO)OC(Oc3ccc(CC4NC(=O)C(C(C)c5ccccc5)NC(=O)CNC(=O)C(CO)NC(=O)C(C(O)C5CNC(=N)N5C5OC(CO)C(O)C(O)C5O)NC(=O)C(C(O)C5CNC(=N)N5)NC4=O)cc3)C(O)C2O)C1O (stereo not drawn) [AC-98-4]
MIC [21]: 128
MIC [14]: >128
MIC [18]: >128

CC(C)CC(=O)OC1C(CO)OC(OC2C(CO)OC(Oc3ccc(CC4NC(=O)C(C(C)c5ccccc5)NC(=O)CNC(=O)C(CO)NC(=O)C(C(O)C5CNC(=N)N5C5OC(CO)C(O)C(O)C5O)NC(=O)C(C(O)C5CNC(=N)N5)NC4=O)cc3)C(O)C2O)C(O)C1O (stereo not drawn) [AC-98-5]
MIC [14]: >128
MIC [18]: >128
